System: SOD1
From the text: An in vitro assay measuring superoxide production from XOD−/+SOD.

sulfonated non-metallated free-base corrole [S2FB]
inhibition of SOD1: inhibit SOD activity
reduction of SOD activity (1 μM): about one-third

Reference: patent publication US9850293B2, “Targeting trastuzumab-resistant HER2+ breast cancer with a HER3-targeting nanoparticle” (priority 2014, dated 2017)
